Source: the supplement of paper PMC10307832

Compound: Cn1cncc1[C@@](N)(c1ccc(Cl)cc1)c1ccc2c(c1)c(-c1cccc(Cl)c1)cc(=O)n2C [Tipifarnib] + CC(C)C[C@H](NC(=O)[C@H](Cc1ccccc1)NC(=O)c1cnccn1)B(O)O [Bortezomib] (partner 0.002 µM)
Assay: relative viability (nuclei count vs DMSO), 5 days (fraction); higher = more cells survive
In short: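 Relative viability equals treated-well nuclei counts divided by vehicle-well nuclei counts. Counts came from 4× images of lung cancer cell lines grown in 1536-well plates for 5 days after pin-tool dosing on the day after seeding. Dosing used one drug alone or a fixed anchor-drug dose plus five library-drug doses (not always all listed) in √10 steps, and values are medians of duplicate plates.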

Cell Line | relative viability (first compound 0.01 µM) | relative viability (first compound 0.03162 µM) | relative viability (first compound 0.1 µM) | relative viability (first compound 0.3162 µM) | relative viability (first compound 1 µM)
H3255 | 0.622 | 0.647 | 0.554 | 0.561 | 0.344
EPLC-272H | 0.987 | 0.195 | 0.634 | 0.577 | 0.311
PC-3 [JPC-3] | 0.873 | 0.629 | 0.698 | 0.609 | 0.427
EKVX | 1.13 | 1.01 | 0.903 | 0.699 | 0.607
ChaGo-K-1 | 0.976 | 1 | 0.954 | 0.978 | 0.53
NCI-H23 | 1.27 | 0.751 | 0.636 | 0.36 | 0.25
EMC-BAC-2 | 1.03 | 1 | 0.937 | 0.924 | 0.749
LOU-NH91 | 0.436 | 0.42 | 0.558 | 0.534 | 0.457
LU99A | 0.803 | 0.712 | 0.477 | 0.53 | 0.314
NCI-H460 | 0.957 | 0.605 | 0.369 | 0.248 | 0.036
201T | 1.12 | 1.14 | 1.06 | 1.05 | 0.788
NCI-H2405 | 0.983 | 0.909 | 0.985 | 0.923 | 0.61
NCI-H1703 | 0.296 | 0.262 | 0.304 | 0.195 | 0.186
NCI-H1755 | 0.987 | 0.835 | 0.848 | 0.821 | 0.626
NCI-H2087 | 0.705 | 0.418 | 0.375 | 0.276 | 0.39
NCI-H2228 | 1.2 | 0.615 | 0.727 | 0.577 | 0.404
NCI-H727 | 0.893 | 0.802 | 0.856 | 0.656 | 0.607
NCI-H650 | 0.781 | 0.36 | 0.697 | 0.539 | 0.346
NCI-H520 | 0.506 | 0.203 | 0.636 | 0.246 | 0.173
EBC-1 | 0.46 | 0.356 | 0.359 | 0.295 | 0.309
NCI-H661 | 0.967 | 0.818 | 0.569 | 0.598 | 0.744
NCI-H1299 | 0.988 | 0.954 | 0.929 | 0.847 | 0.816
NCI-H1993 | 1.12 | 0.852 | 0.955 | 0.608 | 0.806

Cell Line | relative viability (first compound 0.01 µM) | relative viability (first compound 0.03162 µM) | relative viability (first compound 0.1 µM) | relative viability (first compound 0.3162 µM) | relative viability (first compound 1 µM)
NCI-H838 | 0.713 | 0.733 | 0.589 | 0.439 | 0.41
NCI-H1437 | 0.54 | 0.554 | 0.403 | 0.41 | 0.306
LCLC-103H | 1.06 | 0.79 | 0.973 | 0.832 | 0.581
NCI-H441 | 0.685 | 0.2 | 0.432 | 0.207 | 0.185
SK-LU-1 | 1.12 | 0.508 | 0.626 | 0.614 | 0.36
BEN | 0.81 | 0.81 | 0.628 | 0.652 | 0.604
LC-2-ad | 0.984 | 0.486 | 0.491 | 0.443 | 0.185
COR-L23 | 0.914 | 0.647 | 0.708 | 0.501 | 0.486
NCI-H1650 | 0.224 | 0.204 | 0.202 | 0.209 | 0.191
RERF-LC-KJ | 1.1 | 1.1 | 0.85 | 0.694 | 0.717
NCI-H1915 | 0.844 | 0.466 | 0.54 | 0.418 | 0.286
NCI-H596 | 1.05 | 1.12 | 1.17 | 0.913 | 0.699
IA-LM | 0.354 | 0.407 | 0.28 | 0.292 | 0.265
NCI-H2009 | 1.11 | 0.775 | 0.678 | 0.642 | 0.373
NCI-H2126 | 1.05 | 1.07 | 1.13 | 1.05 | 0.669
LXF-289 | 0.978 | 0.889 | 0.948 | 0.874 | 0.706
NCI-H1563 | 0.996 | 0.881 | 0.87 | 0.871 | 0.748
HCC-44 | 0.87 | 0.684 | 0.78 | 0.609 | 0.461
PC-14 | 1 | 0.873 | 0.555 | 0.453 | 0.464
HOP-62 | 1 | 0.188 | 0.222 | 0.275 | 0.281
NCI-H1666 | 0.801 | 0.793 | 0.671 | 0.614 | 0.442
NCI-H1355 | 1.17 | 0.992 | 0.806 | 0.722 | 0.813
HCC-827 | 0.975 | 0.955 | 0.858 | 0.68 | 0.68

Cell Line | relative viability (first compound 0.01 µM) | relative viability (first compound 0.03162 µM) | relative viability (first compound 0.1 µM) | relative viability (first compound 0.3162 µM) | relative viability (first compound 1 µM)
HARA | 1.16 | 0.938 | 1.26 | 1.12 | 0.55
HCC-366 | 1.09 | 0.887 | 0.483 | 0.315 | 0.07
NCI-H322M | 1.27 | 1.32 | 1.18 | 1.05 | 0.947
NCI-H2347 | 0.897 | 0.469 | 0.751 | 0.698 | 0.738
NCI-H1975 | 0.49 | 0.283 | 0.311 | 0.214 | 0.2
UMC-11 | 0.667 | 0.498 | 0.465 | 0.447 | 0.242
ABC-1 | 0.31 |  | 0.212 | 0.253 | 0.291
A-427 | 0.987 | 0.941 | 0.964 | 0.856 | 0.634
LCLC-97TM1 | 0.317 | 0.582 | 0.404 | 0.33 | 0.117
HCC-15 | 0.921 | 0.746 | 0.868 | 0.613 | 0.196
NCI-H647 | 0.911 | 0.59 | 0.678 | 0.589 | 0.273
SW 1573 | 1.13 | 0.752 | 0.691 | 0.45 | 0.49
NCI-H1651 | 0.94 | 0.916 | 1.04 | 0.842 | 0.78
NCI-H1792 | 0.967 | 0.877 | 0.661 | 0.621 | 0.432
NCI-H2023 | 1.27 | 0.757 | 0.45 | 0.453 | 0.156
COR-L 105 | 0.869 | 0.591 | 0.706 | 0.444 | 0.403
NCI-H1734 | 0.953 | 0.764 | 0.724 | 0.502 | 0.385
NCI-H3122 | 0.967 | 0.976 | 0.986 | 0.833 | 0.832
CAL-12T | 0.791 | 0.75 | 0.714 | 0.719 | 0.318
HCC-78 | 0.606 | 0.45 | 0.46 | 0.469 | 0.462
NCI-H2085 | 1.15 | 0.729 | 0.695 | 0.601 | 0.72
